Measured values reported in patent US7951954B2, “Bezothiazol derivatives as Beta2 adrenoreceptor agonists” (AstraZeneca AB, priority 2006, dated 2011).
Structures can show the parent of a compound that is named as a salt. Where two headings read alike, the source gives them in different places.

Key:
Adrenergic β2 = molecular target: T1, Adrenergic β2 (Homo sapiens, UniProt P07550); experiment: Adrenergic β2 mediated cAMP production in H292 cells (AlphaScreen cAMP detection); type: cell-based; settings: for EC50: cAMP production in H292 cells, 300 μM rolipram, 10 minutes with compound, read-out: β2 pEC50 (converted)
T1 construct: endogenous in cells; host or cells: H292 cells
Description: Adrenergic β2 Mediated cAMP Production
H292 cells were grown in RPMI (Roswell Park Memorial Institute) medium containing, 10% (v/v) FBS (foetal bovine serum) and 2 mM L-glutamine. Cells were grown in 225 cm2 flasks containing 25 mL media in a humidified incubator at 37° C., 5% CO2. Cells were harvested from the flask and passaged at a 1 in 10 dilution once per week.
The media from flasks containing H292 cells was removed, rinsed with 10 mL PBS phosphate buffered saline) and replaced with 10 mL Accutase™ cell detachment solution. Flasks were incubated for 15 minutes in a humidified incubator at 37° C., 5% CO2. The cell suspension was counted and the cells re-suspended in RPMI media (containing 10% (v/v) FBS and 2 mM L-glutamine) at 0.05×10^6 cells per mL. 5000 cells in 100 μL were added to each well of a tissue-culture-treated 96-well plate and the cells incubated overnight in a humidified incubator at 37° C., 5% CO2. The culture media was removed, washed twice with 100 μL assay buffer and replaced with 50 μL assay buffer. Cells were rested at room temperature for 20 minutes after which time 25 μL of rolipram (1.2 mM made up in assay buffer containing 2.4% (v/v) dimethylsulphoxide) was added. Cells were incubated with rolipram for 10 minutes after which time test compounds (made up as ×4 concentrated stocks in assay buffer containing 4% (v/v) dimethylsulphoxide) were added and the cells were incubated for 10 minutes at room temperature. Final rolipram concentration in the assay was 300 μM and final vehicle concentration was 1.6% (v/v) dimethylsulphoxide. The reaction was stopped by removing supernatants, washing once with 100 μL assay buffer and replacing with 50 μL lysis buffer. The cell monolayer was frozen at −80° C. for 30 minutes (or overnight).
The concentration of cAMP (cyclic adenosine monophosphate) in the cell lysate was determined using the AlphaScreen™ methodology. The frozen cell plate was thawed for 20 minutes on a plate shaker then 10 μL of the cell lysate was transferred to a 96-well white plate. 40 μL of mixed AlphaScreen™ detection beads (containing equal volumes of donor beads (pre-incubated with biotinylated cAMP in the dark for 30 minutes) and acceptor beads), was added to each well and the plate incubated at room temperature for 10 hours in the dark. The AlphaScreen™ signal was measured using an EnVision spectrophotometer (Perkin-Elmer Inc.) with the recommended manufacturer's settings. cAMP concentrations were determined by reference to a calibration curve determined in the same experiment using standard cAMP concentrations (made up in lysis buffer in a 96-well tissue-culture-treated plate and frozen/thawed alongside the test samples) and detected using the same protocol. Concentration response curves for agonists were constructed to determine both the pEC50 and Intrinsic Activity.

[1] = molecular target: T2, recombinant human α1D receptor (Homo sapiens, UniProt P25100); experiment: Adrenergic α1D selectivity assay, [3H]-prazosin binding to HEK293 membranes; settings: inhibition of [3H]-prazosin binding, HEK293 membranes with recombinant human α1D; read-out: α1D pEC50 (converted)
T2 construct: expressed in transfected cells; host or cells: HEK293
T2 sequence (P25100 1-572): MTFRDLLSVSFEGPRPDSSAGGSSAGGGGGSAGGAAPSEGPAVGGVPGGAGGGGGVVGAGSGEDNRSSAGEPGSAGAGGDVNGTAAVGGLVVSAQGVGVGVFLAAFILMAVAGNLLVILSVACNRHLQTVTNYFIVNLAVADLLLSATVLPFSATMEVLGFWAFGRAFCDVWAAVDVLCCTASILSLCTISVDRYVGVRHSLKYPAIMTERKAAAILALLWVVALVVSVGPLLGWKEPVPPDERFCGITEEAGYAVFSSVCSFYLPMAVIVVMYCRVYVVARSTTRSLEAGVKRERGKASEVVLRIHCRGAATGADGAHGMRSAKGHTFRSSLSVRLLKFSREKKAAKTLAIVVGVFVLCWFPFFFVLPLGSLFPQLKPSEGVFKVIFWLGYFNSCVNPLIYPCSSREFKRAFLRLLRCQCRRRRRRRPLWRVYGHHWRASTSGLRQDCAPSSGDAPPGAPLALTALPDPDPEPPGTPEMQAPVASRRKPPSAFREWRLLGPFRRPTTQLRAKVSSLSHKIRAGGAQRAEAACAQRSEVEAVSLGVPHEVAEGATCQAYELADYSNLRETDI
Description: (§1) These were diluted in Assay Buffer (50 mM HEPES, 1 mM EDTA, 0.1% gelatin, pH 7.4) to provide a final concentration of membranes that gave a clear window between maximum and minimum specific binding.
Assays were performed in U-bottomed 96-well polypropylene plates. […] For each assay plate 8 replicates were obtained for [^3H]-prazosin binding in the presence of 10 μL vehicle (10% (v/v) DMSO in Assay Buffer; defining maximum binding) or 10 μL BMY7378 (10 μM final concentration; defining non-specific binding (NSB)). Membranes were then added to achieve a final volume of 100 μL. The plates were incubated for 2 hours at room temperature and then filtered onto PEI coated GF/B filter plates, pre-soaked for 1 hour in Assay Buffer, using a 96-well plate Tomtec cell harvester. Five washes with 250 μL wash buffer (50 mM HEPES, 1 mM EDTA, pH 7.4) were performed at 4° C. to remove unbound radioactivity. The plates were dried then sealed from underneath using Packard plate sealers and MicroScint-O (50 μL) was added to each well. The plates were sealed (TopSeal A) and filter-bound radioactivity was measured with a scintillation counter (TopCount, Packard BioScience) using a 3-minute counting protocol.
(§2) Total specific binding (B0) was determined by subtracting the mean NSB from the mean maximum binding. NSB values were also subtracted from values from all other wells.

[2] = molecular target: T3, recombinant human adrenergic beta 1 receptors (Homo sapiens, UniProt P08588); experiment: Adrenergic β1 selectivity assay, [125I]-Iodocyanopindolol binding to membranes; settings: inhibition of [125I]-Iodocyanopindolol binding, read-out: β1 pEC50 (converted)
T3 construct: purchased Euroscreen
Description: as §1, with “Membranes containing recombinant human adrenergic beta 1 receptors were obtained from Euroscreen. These” for “These”, “EDTA, 120 mM NaCl,” for “EDTA,”
Assays were performed in U-bottomed 96-well polypropylene plates. 10 μL [^125I]-Iodocyanopindolol (0.036 nM final concentration) and 10 μL of test compound (10× final concentration) were added to each test well. For each assay plate 8 replicates were obtained for [^125I]-Iodocyanopindolol binding in the presence of 10 μL vehicle (10% (v/v) DMSO in Assay Buffer; defining maximum binding) or 10 μL Propranolol (10 μM final concentration; defining non-specific binding (NSB)). Membranes were then added to achieve a final volume of 100 μL. The plates were incubated for 2 hours at room temperature and then filtered onto PEI coated GF/B filter plates, pre-soaked for 1 hour in Assay Buffer, using a 96-well plate Tomtec cell harvester. Five washes with 250 μL wash buffer (50 mM HEPES, 1 mM EDTA, 120 mM NaCl, pH 7.4) were performed at 4° C. to remove unbound radioactivity. The plates were dried then sealed from underneath using Packard plate sealers and MicroScint-O (50 μL) was added to each well. The plates were sealed (TopSeal A) and filter-bound radioactivity was measured with a scintillation counter (TopCount, Packard BioScience) using a 3-minute counting protocol.
as §2

[3] = fraction relative to the maximum activity determined for formoterol in each experiment, H292 cells, cAMP

T3 sequence (P08588 whole entry): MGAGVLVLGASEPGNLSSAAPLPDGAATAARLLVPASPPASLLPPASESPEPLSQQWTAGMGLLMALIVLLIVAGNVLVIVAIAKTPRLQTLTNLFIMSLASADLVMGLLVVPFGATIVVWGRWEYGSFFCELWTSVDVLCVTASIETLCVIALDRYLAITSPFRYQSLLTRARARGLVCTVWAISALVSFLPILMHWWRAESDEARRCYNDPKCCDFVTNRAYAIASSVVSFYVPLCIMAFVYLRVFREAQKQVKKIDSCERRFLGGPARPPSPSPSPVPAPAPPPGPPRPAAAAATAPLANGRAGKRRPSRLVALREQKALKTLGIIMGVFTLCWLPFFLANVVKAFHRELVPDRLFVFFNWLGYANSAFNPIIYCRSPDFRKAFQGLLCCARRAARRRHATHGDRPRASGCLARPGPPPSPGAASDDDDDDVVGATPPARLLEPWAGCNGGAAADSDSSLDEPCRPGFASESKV
T1 sequence (P07550 whole entry): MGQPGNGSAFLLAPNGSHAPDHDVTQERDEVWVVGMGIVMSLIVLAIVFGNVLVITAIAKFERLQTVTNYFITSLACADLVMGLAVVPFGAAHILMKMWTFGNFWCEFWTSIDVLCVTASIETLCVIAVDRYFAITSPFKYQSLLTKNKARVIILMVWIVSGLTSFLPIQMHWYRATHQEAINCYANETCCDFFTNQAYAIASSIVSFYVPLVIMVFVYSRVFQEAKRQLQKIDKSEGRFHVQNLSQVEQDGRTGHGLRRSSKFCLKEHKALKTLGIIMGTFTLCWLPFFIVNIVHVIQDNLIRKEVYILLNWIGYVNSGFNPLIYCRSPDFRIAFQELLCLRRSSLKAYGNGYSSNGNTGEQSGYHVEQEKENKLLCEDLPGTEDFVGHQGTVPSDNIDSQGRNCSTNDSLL

Compound | Intrinsic Activity (Adrenergic β2; [3]) | EC50 [1] [nM] | EC50 [2] [nM] | Intrinsic Activity (Adrenergic β2) | EC50 (Adrenergic β2) [nM]
O=c1[nH]c2c(O)ccc([C@@H](O)CNCCc3cccc(CNCCc4c(Cl)cccc4Cl)c3)c2s1 [Example 1, 7-{2-[2-(3-{[2-(2,6-Dichloro-phenyl)-ethylamino]-methyl}-phenyl)-ethylamino]-1R-hydroxy-ethyl}-4-hydroxy-3H-benzothiazol-2-one bis-trifluoroacetate salt] | 0.8 | 63.1 | 12.6 |  | 
O=c1[nH]c2c(O)ccc([C@@H](O)CNCCc3cccc(CNCc4ccccc4Cl)c3)c2s1 [Example 3, 7-[2-(2-{3-[(2-Chloro-benzylamino)-methyl]-phenyl}-ethylamino)-1R-hydroxy-ethyl]-4-hydroxy-3H-benzothiazol-2-one bis-trifluoroacetate salt] |  | 158 | 10 | 0.9 | 
O=c1[nH]c2c(O)ccc([C@@H](O)CNCCc3cccc(CN[C@@H]4C[C@H]4c4ccc(F)cc4)c3)c2s1 [Example 10, 7-{2-[2-(3-{[2S-(4-Fluoro-phenyl)-cycloprop-1R-ylamino]-methyl}-phenyl)-ethylamino]-1R-hydroxy-ethyl}-4-hydroxy-3H-benzothiazol-2-one bis-trifluoroacetate salt] | 1.0 | 316 | 200 |  | 0.316
COCCNCc1cccc(CCNC[C@H](O)c2ccc(O)c3[nH]c(=O)sc23)c1 [Example 13, 4-Hydroxy-7-[1R-hydroxy-2-(2-{3-[(2-methoxy-ethylamino)-methyl]-phenyl}-ethylamino)-ethyl]-3H-benzothiazol-2-one di-hydrochloride salt] |  | 501 | 158 | 1.0 | 2
CC(Cc1cccc(CNCCc2c(Cl)cccc2Cl)c1)NC[C@H](O)c1ccc(O)c2[nH]c(=O)sc12 (stereo partly drawn) [Example 15, 7-{2-[2-(3-{[2-(2,6-Dichloro-phenyl)-ethylamino]-methyl}-phenyl)-1-methyl-ethylamino]-1R-hydroxy-ethyl}-4-hydroxy-3H-benzothiazol-2-one bis-trifluoroacetate salt] |  | 39.8 | 15.8 | 0.8 | 
O=c1[nH]c2c(O)ccc([C@@H](O)CNCCc3ccc(CNCCc4ccccn4)cc3)c2s1 [Example 22, 4-Hydroxy-7-[1R-hydroxy-2-(2-{4-[(2-(2-pyridyl)ethylamino)methyl]phenyl}-ethylamino)ethyl]-3H-benzothiazol-2-one tris-trifluoroacetate salt] |  | 25.1 | 794 | 1.0 | 
COc1ccccc1CNCc1cccc(CCNC[C@H](O)c2ccc(O)c3[nH]c(=O)sc23)c1 [Example 36, 4-Hydroxy-7-[1R-hydroxy-2-(2-{3-[(2-methoxy-benzylamino)-methyl]-phenyl}-ethylamino)-ethyl]-3H-benzothiazol-2-one bis-trifluoroacetate salt] |  | 200 | 50.1 | 0.8 | 
O=c1[nH]c2c(O)ccc([C@@H](O)CNCCc3cccc(CNCCc4cccc[n+]4[O-])c3)c2s1 [Example 40, 4-Hydroxy-7-{1R-hydroxy-2-[2-(3-{[2-(1-oxy-pyridin-2-yl)-ethylamino]-methyl}-phenyl)-ethylamino]-ethyl}-3H-benzothiazol-2-one bis-trifluoroacetate salt] | 0.8 | 100 | 39.8 |  | 2.51
COc1ccccc1CNCCc1cccc(CCNC[C@H](O)c2ccc(O)c3[nH]c(=O)sc23)c1 [Example 45, 4-Hydroxy-7-[1R-hydroxy-2-(2-{3-[2-(2-methoxy-benzylamino)-ethyl]-phenyl}-ethylamino)-ethyl]-3H-benzothiazol-2-one bis-hydrochloride salt] |  | 25.1 | 63.1 | 1.0 | 
O=c1[nH]c2c(O)ccc([C@@H](O)CNCCc3cccc(CN4CCCC4)c3)c2s1 [Example 51, 4-Hydroxy-7-{1R-hydroxy-2-[2-(3-pyrrolidin-1-ylmethyl-phenyl)-ethylamino]-ethyl}-3H-benzothiazol-2-one bis-hydrochloride salt] | 1.1 | 1000 | 1260 |  | 1
CC(C)NCc1ccc(CCNC[C@H](O)c2ccc(O)c3[nH]c(=O)sc23)cc1 [Example 53, 4-Hydroxy-7-{1R-hydroxy-2-[2-(4-isopropylaminomethyl)phenyl]ethylamino}-ethyl)-3H-benzothiazol-2-one bis-trifluoroacetate salt] | 0.9 | 398 | 251 |  | 0.631
O=c1[nH]c2c(O)ccc([C@@H](O)CNCCc3cccc(CNCc4ccccn4)c3)c2s1 [Example 61, 4-Hydroxy-7-{1R-hydroxy-2-[2-(3-{[(pyridin-2-ylmethyl)-amino]-methyl}-phenyl)-ethylamino]-ethyl}-3H-benzothiazol-2-one bis-hydrochloride salt] |  | 316 | 79.4 | 0.9 | 
